This passage reports koff results from publication PMC12238850, “Molecular determinants for recognition of serotonylated chromatin” (Nucleic Acids Research, 2025).

The assay has as its target T1, Taf3-PHD (residues 857–924) (Mus musculus, UniProt Q5HZG4).
T1 construct: PHD finger of Taf3 (residues 857–924) in NMR buffer; GST (N, cleaved yes); made in house; host or cells: E. coli BL21(DE3), M9 minimal medium (13C/15N)
T1 sequence (Q5HZG4 857-924): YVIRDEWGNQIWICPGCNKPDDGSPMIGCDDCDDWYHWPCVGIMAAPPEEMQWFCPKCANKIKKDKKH
In words: NMR titration line shape analysis (TITAN), wild-type Taf3-PHD. The assay is classed as binding. How it is done:
The ^13C- and ^15N-labelled Taf3-PHD NMR samples were purified as described above, with minor differences. A single colony of freshly transformed BL21(DE3) E. coli was grown in a synthetic M9 minimal medium (6.0 g/l Na2HPO4·2H2O, 3.0 g/l KH2PO4, 0.5 g/l NaCl, 25 mg/l MgSO4, 290 μg/l CaCl2, 1 μg/l FeSO4·7H2O, 270 μg/l ZnCl2, and 5 mg/l thiamine) containing 2.0 g/l ^13C-glucose as the only carbon source and 0.5 g/l ^15NH4Cl as the sole nitrogen source. Protein expression, lysis, and loading to Glutathione Sepharose™ column were performed as described above. The GST-tag was removed through on-column thrombin digestion by loading excess thrombin (SERVA) in wash buffer followed by overnight digestion at 4°C. The cleaved PHD moiety with a […] N-terminal extension (Gly–Ser–His–Met–Ala–Met–Ala) remaining from the thrombin cleavage site was collected from the flow-through and further purified in a Mono Q™ 10/100 GL as before and subsequently loaded to a Superdex-75 HiLoad 16/600 gel filtration column in NMR buffer (20 mM KPi, pH 7.0, 150 mM KCl, 10 μM ZnCl2) (Supplementary Fig. S1).
All data were recorded at 298 K on a Bruker Avance III HD 900 MHz spectrometer equipped with a cryoprobe, unless noted otherwise. Sample for assignment verification contained 0.3 mM ^13C- and ^15N-labelled PHD finger of Taf3 (residues 857–924) in NMR buffer (20 mM KPi, pH 7.0, 150 mM KCl, 10 μM ZnCl2, 0.01% NaN3, 10% D2O) in a 5-mm NMR tube. Samples for peptide interaction studies contained 0.19 mM ^13C- and ^15N-labelled PHD in NMR buffer in 3-mm NMR tubes. Lyophilized peptides were dissolved in NMR buffer including 1 mM sodium 3-(trimethylsilyl)tetradeuteriopropanionate (TSP) into 20 mM stock solutions. Upon dilution to 1 mM, all peptide solutions were at pH 7.0 in NMR buffer. Peptide concentrations were determined by comparing the integral of the Thr methyl signal (from T3, T6, and T11, total nine protons) to that of TSP using a quantitative 1D experiment (recycle delay 60 s) recorded at a Bruker Avance III 600 MHz spectrometer. Saturated complexes with H3K4me1/H3K4me2/H3K4me3 peptides with and without H3Q5ser were made by adding peptide to a 0.7 mM final concentration (3.6 equiv.). […] Additional samples were prepared using 30%, 50%, 80%, and 160% equiv. of peptide. All spectra were recorded and processed using Bruker Topspin and analysed using NMR-FAM Sparky and Poky.
For the H3K4me2 complexes, the resonance of G879 was excluded due to overlap and that of K875 was included. Spectra were processed using NMRPipe using exponential line broadening of 10/15 Hz in the direct/indirect dimension of the free induction decay before Fourier transform. Data were fit against a 1:1 binding model that also optimizes the ligand concentration to compensate for concentration errors. Fitting assumed an HSQC experiment using 1.2 ms for the first zz-filter delays and an additional 0.6 ms evolution at the start and end of t1 that accommodated the echo/anti-echo gradient. The average koff value and standard error from a bootstrap analysis based on 100 replicas are reported. The 95% confidence limits were estimated using a grid search fixing koff allowing for an ∼3% increase in the final residuals as based on the F-statistic given the degrees of freedom. For each koff value, the KD for the H3K4me3 peptide was restrained to fall within 100 and 400 nM to enforce compatibility to previous reported affinity to avoid unrealistically high fitted KD values at higher koff values. Of note, the quality of the fit at the confidence limit edges is visibly worse than the best fit, particularly for the high koff side. For the H3K4me3Q5ser peptide, no restraint on KD was necessary. For the H3K4me2 peptides, the KD was restrained to 5 μM maximum. Without these upper bounds for KD, slightly wider confidence limits for koff are found.

Like-named read-outs stand apart in the source and are kept apart here.

The koff is the first-order rate constant of dissociation.

Take `C[C@H](N)C(=O)N[C@@H](CCCNC(=N)N)C(=O)N[C@H](C(=O)N[C@@H](CCCC[N+](C)(C)C)C(=O)N[C@@H](CCC(N)=O)C(=O)N[C@H](C(=O)N[C@@H](C)C(=O)N[C@@H](CCCNC(=N)N)C(=O)N[C@@H](CCCCN)C(=O)N[C@@H](CO)C(=O)N[C@H](C(=O)NCC(N)=O)[C@@H](C)O)[C@@H](C)O)[C@@H](C)O` [H3K4me3]: the koff runs as follows: (NMR line shape fit (TITAN), 298 K, 20 mM KPi, pH 7.0, 150 mM KCl, 1:1 model, average ± standard error from bootstrap, 100 replicas, read-out: koff) 48.8 ± 1 s⁻¹; (NMR line shape fit (TITAN), 298 K, pH 7.0, grid search, read-out: koff 95% confidence limits) 42 to 56 s⁻¹.
As for `C[C@H](N)C(=O)N[C@@H](CCCNC(=N)N)C(=O)N[C@H](C(=O)N[C@@H](CCCC[N+](C)(C)C)C(=O)N[C@@H](CCC(=O)NCCc1c[nH]c2ccc(O)cc12)C(=O)N[C@H](C(=O)N[C@@H](C)C(=O)N[C@@H](CCCNC(=N)N)C(=O)N[C@@H](CCCCN)C(=O)N[C@@H](CO)C(=O)N[C@H](C(=O)NCC(N)=O)[C@@H](C)O)[C@@H](C)O)[C@@H](C)O` [H3K4me3Q5ser], the koff by setting is: (pH 7) 16.8 ± 0.5 s⁻¹; (pH 7, read-out: koff 95% confidence limits) 12 to 22 s⁻¹.
